Experimental data reported in US8163771B2, “11 β-HSD1 modulators” (Exelixis, Inc., priority 2008, dated 2012).

biological target: T1, recombinant human 11 β-HSD1 (Homo sapiens, UniProt P28845); test: 11 β-HSD1 SPA Assay (Scintillation Proximity Assay); type: biochemical
T1 construct: made in house; host or cells: E. coli
How it was run: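 Scintillation proximity read-out of cortisol formed from 40 nM [3H]cortisone by purified recombinant human enzyme (30-100 nM, E. coli) with 1 mM NADPH, pH7.4, 2 hours at room temperature; beads with cortisol antibody and glycyrrhetinic acid stop the reaction, read next day. IC50 derived from inhibition normalised to background and maximal wells.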

T1 sequence (P28845 whole entry): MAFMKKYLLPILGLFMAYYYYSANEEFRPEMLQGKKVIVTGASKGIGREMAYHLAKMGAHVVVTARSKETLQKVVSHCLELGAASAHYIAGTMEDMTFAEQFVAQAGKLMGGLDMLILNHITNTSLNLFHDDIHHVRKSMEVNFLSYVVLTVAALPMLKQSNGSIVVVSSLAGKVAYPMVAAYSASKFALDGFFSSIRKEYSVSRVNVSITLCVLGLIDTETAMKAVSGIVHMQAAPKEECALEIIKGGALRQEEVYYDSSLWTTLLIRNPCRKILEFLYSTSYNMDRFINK

Row | SMILES | IC50 [nM]
1 | CC(C)(Oc1ccccc1C(F)(F)F)C(=O)N[C@H]1C[C@H]2CC[C@@H](C1)N2c1ccc(C(=O)NCC(F)(F)F)cn1 [Example 112, 6-{3-endo-[(2-methyl-2-{[2-(trifluoromethyl)phenyl]oxy}propanoyl)amino]-8-azabicyclo[3.2.1]oct-8-yl}-N-(2,2,2-trifluoroethyl)pyridine-3-carboxamide] | < 200
2 | CC(C)(Oc1ccccc1C(F)(F)F)C(=O)N[C@H]1C[C@H]2CC[C@@H](C1)N2c1ccc(C(=O)NC2CC2)cn1 [Example 113, N-cyclopropyl-6-{3-endo-[(2-methyl-2-{[2-(trifluoromethyl)phenyl]oxy}propanoyl)amino]-8-azabicyclo[3.2.1]oct-8-yl}pyridine-3-carboxamide] | < 200
3 | CC(C)(Oc1ccc(Cl)cc1Cl)C(=O)N[C@H]1C[C@H]2CC[C@@H](C1)N2c1ccc(-c2nnn[nH]2)cn1 [Example 114, 2-[(2,4-dichlorophenyl)oxy]-2-methyl-N-{8-[5-(1H-tetrazol-5-yl)pyridin-2-yl]-8-azabicyclo[3.2.1]oct-3-endo-yl}propanamide] | < 200
4 | CC(=O)Nc1ccc(N2[C@@H]3CC[C@H]2C[C@@H](NC(=O)C(C)(C)Oc2ccc(Cl)cc2Cl)C3)cc1 [Example 115, N-{8-[4-(acetylamino)phenyl]-8-azabicyclo[3.2.1]oct-3-endo-yl}-2-[(2,4-dichlorophenyl)oxy]-2-methylpropanamide] | < 200
5 | CC(C)(Oc1ccc(Cl)cc1Cl)C(=O)N[C@H]1C[C@H]2CC[C@@H](C1)N2c1ccc(NC(=O)C(F)(F)F)cc1 [Example 116, 2-[(2,4-dichlorophenyl)oxy]-2-methyl-N-(8-{4-[(trifluoroacetyl)amino]phenyl}-8-azabicyclo[3.2.1]oct-3-endo-yl)propanamide] | < 200
6 | CC(C)(Oc1ccc(Cl)cc1Cl)C(=O)N[C@H]1C[C@H]2CC[C@@H](C1)N2c1ccc(C(=O)NCC(F)(F)F)cc1Cl [Example 117, 3-chloro-4-[3-endo-({2-[(2,4-dichlorophenyl)oxy]-2-methylpropanoyl}amino)-8-azabicyclo[3.2.1]oct-8-yl]-N-(2,2,2-trifluoroethyl)benzamide] | < 200
7 | O=C(NC1CC1)c1ccc(N2[C@@H]3CC[C@H]2C[C@@H](NC(=O)C2(c4ccc(Cl)cc4)CC2)C3)c(Cl)c1 [Example 118, 3-chloro-4-[3-endo-({[1-(4-chlorophenyl)cyclopropyl]carbonyl}amino)-8-azabicyclo[3.2.1]oct-8-yl]-N-cyclopropylbenzamide] | < 200
8 | O=C(NC1CC1)c1ccc(N2[C@@H]3CC[C@H]2C[C@@H](NC(=O)C2(c4ccc(Cl)cc4)CC2)C3)cc1F [Example 119, 4-[3-endo-({[1-(4-chlorophenyl)cyclopropyl]carbonyl}amino)-8-azabicyclo[3.2.1]oct-8-yl]-N-cyclopropyl-2-fluorobenzamide] | < 200
9 | CC(C)(Oc1ccc(Cl)cc1Cl)C(=O)N[C@H]1C[C@H]2CC[C@@H](C1)N2c1ccc(S(C)(=O)=O)cc1 [Example 120, 2-[(2,4-dichlorophenyl)oxy]-2-methyl-N-{8-[4-(methylsulfonyl)phenyl]-8-azabicyclo[3.2.1]oct-3-endo-yl}propanamide] | < 200
10 | O=C(NCC(F)(F)F)c1ccc(N2[C@@H]3CC[C@H]2C[C@@H](NC(=O)C2(c4ccc(F)c(F)c4)CC2)C3)nc1 [Example 121, 6-[3-endo-({[1-(3,4-difluorophenyl)cyclopropyl]carbonyl}amino)-8-azabicyclo[3.2.1]oct-8-yl]-N-(2,2,2-trifluoroethyl)pyridine-3-carboxamide] | < 200
11 | O=C(NCC(F)(F)F)c1ccc(N2[C@@H]3CC[C@H]2C[C@@H](NC(=O)C2(c4cccc(Cl)c4)CC2)C3)nc1 [Example 122, 6-[3-endo-({[1-(3-chlorophenyl)cyclopropyl]carbonyl}amino)-8-azabicyclo[3.2.1]oct-8-yl]-N-(2,2,2-trifluoroethyl)pyridine-3-carboxamide] | < 200
12 | O=C(NCC(F)(F)F)c1ccc(N2[C@@H]3CC[C@H]2C[C@@H](NC(=O)C2(c4cccc(F)c4)CC2)C3)nc1 [Example 123, 6-[3-endo-({[1-(3-fluorophenyl)cyclopropyl]carbonyl}amino)-8-azabicyclo[3.2.1]oct-8-yl]-N-(2,2,2-trifluoroethyl)pyridine-3-carboxamide] | < 200
13 | CC(C)(Oc1ncc(Cl)cc1Cl)C(=O)N[C@H]1C[C@H]2CC[C@@H](C1)N2c1ccc(C(N)=O)cn1 [Example 124, 6-[3-endo-({2-[(3,5-dichloropyridin-2-yl)oxy]-2-methylpropanoyl}amino)-8-azabicyclo[3.2.1]oct-8-yl]pyridine-3-carboxamide] | < 200
14 | CC(C)(Oc1ccc(Cl)cc1Cl)C(=O)N[C@H]1C[C@H]2CC[C@@H](C1)N2c1ccc(S(N)(=O)=O)cn1 [Example 125, N-{8-[5-(aminosulfonyl)pyridin-2-yl]-8-azabicyclo[3.2.1]oct-3-endo-yl}-2-[(2,4-dichlorophenyl)oxy]-2-methylpropanamide] | < 200
15 | CC(C)(Oc1ccc(Cl)cc1Cl)C(=O)N[C@H]1C[C@H]2CC[C@@H](C1)N2c1ccc(C(=O)NCC(F)(F)C(F)(F)F)cn1 [Example 126, 6-[3-endo-({2-[(2,4-dichlorophenyl)oxy]-2-methylpropanoyl}amino)-8-azabicyclo[3.2.1]oct-8-yl]-N-(2,2,3,3,3-pentafluoropropyl)pyridine-3-carboxamide] | < 200
16 | CC(C)(Oc1ncc(Cl)cc1F)C(=O)N[C@H]1C[C@H]2CC[C@@H](C1)N2c1ccc(C(=O)NCC(F)(F)F)cn1 [Example 127, 6-[3-endo-({2-[(5-chloro-3-fluoropyridin-2-yl)oxy]-2-methylpropanoyl}amino)-8-azabicyclo[3.2.1]oct-8-yl]-N-(2,2,2-trifluoroethyl)pyridine-3-carboxamide] | < 200
17 | CC(C)(Oc1ccc(OC(F)(F)F)cc1)C(=O)N[C@H]1C[C@H]2CC[C@@H](C1)N2c1ccc(C(=O)NCC(F)(F)F)cn1 [Example 128, 6-(3-endo-{[2-methyl-2-({4-[(trifluoromethyl)oxy]phenyl}oxy)propanoyl]amino}-8-azabicyclo[3.2.1]oct-8-yl)-N-(2,2,2-trifluoroethyl)pyridine-3-carboxamide] | < 200
18 | CC(C)(Oc1ccc(Cl)cc1Cl)C(=O)N[C@H]1C[C@H]2CC[C@@H](C1)N2c1ccc(C(=O)NCC(F)(F)F)cc1F [Example 129, 4-[3-endo-({2-[(2,4-dichlorophenyl)oxy]-2-methylpropanoyl}amino)-8-azabicyclo[3.2.1]oct-8-yl]-3-fluoro-N-(2,2,2-trifluoroethyl)benzamide] | < 200
19 | CC(C)(Oc1ccc(Cl)cc1Cl)C(=O)N[C@H]1C[C@H]2CC[C@@H](C1)N2c1ccc(C(=O)NC2CC2)c(F)c1 [Example 130, N-cyclopropyl-4-[3-endo-({2-[(2,4-dichlorophenyl)oxy]-2-methylpropanoyl}amino)-8-azabicyclo[3.2.1]oct-8-yl]-2-fluorobenzamide] | < 200
20 | CC(C)(Oc1ccc(Cl)cc1Cl)C(=O)N[C@H]1C[C@H]2CC[C@@H](C1)N2c1ncc(C(=O)NCC(F)(F)F)cc1Cl [Example 131, 5-chloro-6-[3-endo-({2-[(2,4-dichlorophenyl)oxy]-2-methylpropanoyl}amino)-8-azabicyclo[3.2.1]oct-8-yl]-N-(2,2,2-trifluoroethyl)pyridine-3-carboxamide] | < 200
21 | CC(C)(Oc1ccc(Cl)cc1Cl)C(=O)N[C@H]1C[C@H]2CC[C@@H](C1)N2c1ccc(C(=O)NC2CC2)cc1 [Example 132, N-cyclopropyl-4-[3-endo-({2-[(2,4-dichlorophenyl)oxy]-2-methylpropanoyl}amino)-8-azabicyclo[3.2.1]oct-8-yl]benzamide] | < 200
22 | CC(C)(Oc1ccc(Cl)cc1Cl)C(=O)N[C@H]1C[C@H]2CC[C@@H](C1)N2c1ccc(NC(=O)CC(F)(F)F)cc1 [Example 133, N-{4-[3-endo-({2-[(2,4-dichlorophenyl)oxy]-2-methylpropanoyl}amino)-8-azabicyclo[3.2.1]oct-8-yl]phenyl}-3,3,3-trifluoropropanamide] | < 200
23 | CC(C)(Oc1ccc(Cl)cc1Cl)C(=O)N[C@H]1C[C@H]2CC[C@@H](C1)N2c1ccc(NC(=O)NCC(F)(F)F)cn1 [Example 134, 2-[(2,4-dichlorophenyl)oxy]-2-methyl-N-{8-[5-({[(2,2,2-trifluoroethyl)amino]carbonyl}amino)pyridin-2-yl]-8-azabicyclo[3.2.1]oct-3-endo-yl}propanamide] | < 200
24 | CC(C)(Oc1ccc(Cl)cc1Cl)C(=O)N[C@H]1C[C@H]2CC[C@@H](C1)N2c1ccc(NC(=O)NCC(F)(F)F)cc1 [Example 135, 2-[(2,4-dichlorophenyl)oxy]-2-methyl-N-{8-[4-({[(2,2,2-trifluoroethyl)amino]carbonyl}amino)phenyl]-8-azabicyclo[3.2.1]oct-3-endo-yl}propanamide] | < 200
25 | CC(C)(Oc1ccc(Cl)cc1Cl)C(=O)N[C@H]1C[C@H]2CC[C@@H](C1)N2c1ccc(NC(=O)NCC(F)(F)F)cc1Cl [Example 136, N-{8-[2-chloro-4-({[(2,2,2-trifluoroethyl)amino]carbonyl}amino)phenyl]-8-azabicyclo[3.2.1]oct-3-endo-yl}-2-[(2,4-dichlorophenyl)oxy]-2-methylpropanamide] | < 2000
26 | CC(C)(Oc1ccc(Cl)cc1Cl)C(=O)N[C@H]1C[C@H]2CC[C@@H](C1)N2c1ccc(NC(=O)NCC(F)(F)F)cc1F [Example 137, 2-[(2,4-dichlorophenyl)oxy]-N-{8-[2-fluoro-4-({[(2,2,2-trifluoroethyl)amino]carbonyl}amino)phenyl]-8-azabicyclo[3.2.1]oct-3-endo-yl}-2-methylpropanamide] | < 200
27 | CC(C)(Oc1ccc(Cl)cc1Cl)C(=O)N[C@H]1C[C@H]2CC[C@@H](C1)N2c1ccc(NC(=O)CC(F)(F)F)cc1Cl [Example 138, N-{3-chloro-4-[3-endo-({2-[(2,4-dichlorophenyl)oxy]-2-methylpropanoyl}amino)-8-azabicyclo[3.2.1]oct-8-yl]phenyl}-3,3,3-trifluoropropanamide] | < 2000
